pIC50: −log10 of the molar value.
Key:
[1] = biological target: T1, Human TRPA1 expressing CHO cells (Homo sapiens, UniProt O75762); test: 45Calcium uptake assay, inhibition of AITC induced calcium uptake (human); type: cell-based; conditions: human TRPA1 CHO cells, AITC 30 μM; for inhibition at 1 µM: compound 1.0 μM, read-out: Percentage inhibition at 1.0 μM; for inhibition at 10 µM: compound 10.0 μM, read-out: Percentage inhibition at 10.0 μM; for pIC50: read-out: Human IC50 value (Range)
T1 construct: expressed in transfected cells; host or cells: CHO cells (G-418 selection)
Method: (§1) Screening for TRPA1 Antagonist Using the ^45Calcium Uptake Assay:
(§2) The inhibition of TRPA1 receptor activation was measured as inhibition of allyl isothiocyanate (AITC) induced cellular uptake of radioactive calcium.
(§3) Test compounds were dissolved in 100% DMSO to prepare 10 mM stock and then diluted using plain medium with 0.1% BSA and 1.8 mM CaCl2 to get the desired concentration. The final concentration of DMSO in the reaction was 0.5% (v/v). […] Rat TRPA1 expressing CHO cells were grown in F-12 DMEM medium with 10% FBS, 1% penicillin-streptomycin solution, and 400 μg/ml of Zeocin. […] Cells were treated with the test compounds for 10 minutes followed by the addition of AITC at a final concentration of 30 μM (for human TRPA1) and/or 10 μM (for rat TRPA1) and 5 μCi/ml ^45Ca^+2 for 3 minutes. Cells were washed and lysed using a buffer containing 1% Triton X-100, 0.1% deoxycholate and 0.1% SDS. Radioactivity in the lysate was measured in a Packard TopCount after addition of liquid scintillant.
(§4) Concentration response curves were plotted as a % of maximal response obtained in the absence of test antagonist. IC50 values can be calculated from concentration response curve by nonlinear regression analysis using GraphPad PRISM software.

[2] = biological target: T2, Rat TRPA1 expressing CHO cells (Rattus norvegicus, UniProt Q6RI86); test: 45Calcium uptake assay, inhibition of AITC induced calcium uptake (rat); type: cell-based; conditions: rat TRPA1 CHO cells, AITC 10 μM; for pIC50: read-out: Rat IC50 value (Range); for inhibition at 1 µM: compound 1.0 μM, read-out: Percentage inhibition at 1.0 μM; for inhibition at 10 µM: compound 10.0 μM, read-out: Percentage inhibition at 10.0 μM
T2 construct: expressed in transfected cells; host or cells: CHO cells (Zeocin selection)
Method: as §1, §2, §3, §4

T1 sequence (O75762 whole entry): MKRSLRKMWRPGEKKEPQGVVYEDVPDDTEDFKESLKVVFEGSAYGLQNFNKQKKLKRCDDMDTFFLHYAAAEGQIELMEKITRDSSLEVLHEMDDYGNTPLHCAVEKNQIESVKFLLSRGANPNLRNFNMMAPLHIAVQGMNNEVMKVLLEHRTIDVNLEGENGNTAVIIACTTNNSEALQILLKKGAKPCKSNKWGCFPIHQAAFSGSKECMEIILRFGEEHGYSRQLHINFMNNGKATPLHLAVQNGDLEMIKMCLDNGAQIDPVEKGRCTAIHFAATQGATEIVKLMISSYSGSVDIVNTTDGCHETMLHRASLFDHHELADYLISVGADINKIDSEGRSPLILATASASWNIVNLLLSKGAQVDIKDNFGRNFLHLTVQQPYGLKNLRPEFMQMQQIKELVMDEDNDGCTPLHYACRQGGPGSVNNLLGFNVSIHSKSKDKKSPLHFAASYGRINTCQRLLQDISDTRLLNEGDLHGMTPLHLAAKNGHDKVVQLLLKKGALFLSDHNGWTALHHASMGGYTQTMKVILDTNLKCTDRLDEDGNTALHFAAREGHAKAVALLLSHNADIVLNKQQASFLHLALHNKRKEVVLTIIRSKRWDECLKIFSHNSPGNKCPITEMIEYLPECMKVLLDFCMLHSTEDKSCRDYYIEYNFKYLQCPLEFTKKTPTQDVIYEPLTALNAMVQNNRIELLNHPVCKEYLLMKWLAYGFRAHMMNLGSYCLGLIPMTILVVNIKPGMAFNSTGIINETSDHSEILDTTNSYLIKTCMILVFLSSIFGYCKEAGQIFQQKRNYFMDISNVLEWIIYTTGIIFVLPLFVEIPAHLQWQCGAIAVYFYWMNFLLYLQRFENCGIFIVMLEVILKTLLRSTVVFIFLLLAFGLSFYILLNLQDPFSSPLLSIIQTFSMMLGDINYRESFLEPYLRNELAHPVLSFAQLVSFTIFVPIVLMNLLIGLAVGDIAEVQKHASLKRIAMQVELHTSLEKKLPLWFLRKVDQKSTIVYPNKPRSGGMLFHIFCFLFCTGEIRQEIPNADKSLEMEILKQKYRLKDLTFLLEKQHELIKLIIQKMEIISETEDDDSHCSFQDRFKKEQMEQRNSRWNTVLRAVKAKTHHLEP
T2 sequence (Q6RI86 whole entry): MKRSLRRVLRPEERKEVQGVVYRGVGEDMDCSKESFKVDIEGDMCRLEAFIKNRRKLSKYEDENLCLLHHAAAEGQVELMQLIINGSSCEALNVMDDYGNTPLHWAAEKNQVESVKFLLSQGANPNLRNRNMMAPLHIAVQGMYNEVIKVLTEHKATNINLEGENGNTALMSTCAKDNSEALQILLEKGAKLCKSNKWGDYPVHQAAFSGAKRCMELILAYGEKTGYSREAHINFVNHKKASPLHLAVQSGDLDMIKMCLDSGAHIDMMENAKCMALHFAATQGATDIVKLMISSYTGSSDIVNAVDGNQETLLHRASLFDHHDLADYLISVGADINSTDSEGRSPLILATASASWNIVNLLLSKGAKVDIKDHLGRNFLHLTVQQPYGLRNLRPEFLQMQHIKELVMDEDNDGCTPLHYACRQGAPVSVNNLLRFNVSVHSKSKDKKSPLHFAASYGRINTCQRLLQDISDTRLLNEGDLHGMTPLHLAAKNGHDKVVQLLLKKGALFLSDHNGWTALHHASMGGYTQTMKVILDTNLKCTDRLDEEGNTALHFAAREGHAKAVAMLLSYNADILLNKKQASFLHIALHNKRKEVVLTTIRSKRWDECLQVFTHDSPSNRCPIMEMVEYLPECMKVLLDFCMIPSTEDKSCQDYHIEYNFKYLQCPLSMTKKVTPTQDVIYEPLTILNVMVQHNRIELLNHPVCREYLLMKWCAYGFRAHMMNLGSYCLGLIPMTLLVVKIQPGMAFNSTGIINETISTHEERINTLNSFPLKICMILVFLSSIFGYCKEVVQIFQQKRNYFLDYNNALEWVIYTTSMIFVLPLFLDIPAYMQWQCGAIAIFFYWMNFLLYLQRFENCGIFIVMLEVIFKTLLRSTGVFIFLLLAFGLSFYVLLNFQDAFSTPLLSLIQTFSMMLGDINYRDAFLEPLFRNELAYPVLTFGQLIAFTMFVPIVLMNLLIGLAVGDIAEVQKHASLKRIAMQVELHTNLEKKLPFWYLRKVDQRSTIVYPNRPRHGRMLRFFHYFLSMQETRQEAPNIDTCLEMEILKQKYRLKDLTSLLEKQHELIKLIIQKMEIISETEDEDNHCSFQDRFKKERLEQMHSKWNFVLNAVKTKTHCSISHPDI

Structure (SMILES)	inhibition at 1 µM [1]	inhibition at 10 µM [1]	pIC50 [1]	pIC50 [2]	inhibition at 1 µM [2]	inhibition at 10 µM [2]
Cn1c(=O)c2c(CC(=O)Nc3nc(-c4ccc(F)c(C(F)(F)F)c4F)cs3)csc2n(C)c1=O [Example 13, N-{4-[2,4-Difluoro-3-(trifluoromethyl)phenyl]-1,3-thiazol-2-yl}-2-(1,3-dimethyl-2,4-dioxo-1,2,3,4-tetrahydrothieno[2,3-d]pyrimidin-5-yl)acetamide]	98.2%	98.1%	> 7.30	> 7.30		
Cn1c(=O)c2c(CC(=O)Nc3nc(-c4cc(F)c(C(F)(F)F)c(F)c4)cs3)csc2n(C)c1=O [Example 16, N-{4-[3,5-Difluoro-4-(trifluoromethyl)phenyl]-thiazol-2-yl}-2-(1,3-dimethyl-2,4-dioxo-1,2,3,4-tetrahydrothieno[2,3-d]pyrimidin-5-yl)acetamide]	99.1%	99.1%	> 7.30		38.7%	98.7%
Cc1sc2c(c1CC(=O)Nc1nc(-c3ccc(C(C)(C)C)cc3)cs1)c(=O)n(C)c(=O)n2C [Example 17, N-[4-(4-tert-Butylphenyl)-1,3-thiazol-2-yl]-2-(1,3,6-trimethyl-2,4-dioxo-1,2,3,4-tetrahydrothieno[2,3-d]pyrimidin-5-yl)acetamide]	97.5%	98.8%	6.30 to 7.30	6.30 to 7.30	93.1%	99.2%
Cc1sc2c(c1CC(=O)Nc1nc(-c3cccc(OC(F)(F)F)c3)cs1)c(=O)n(C)c(=O)n2C [Example 18, N-{4-[3-(Trifluoromethoxy)phenyl]-1,3-thiazol-2-yl}-2-(1,3,6-trimethyl-2,4-dioxo-1,2,3,4-tetrahydrothieno[2,3-d]pyrimidin-5-yl)acetamide]	98.5%	100%	6.30 to 7.30		95.7%	100%
Cc1sc2c(c1CC(=O)Nc1nc(-c3ccc(Cl)cc3)cs1)c(=O)n(C)c(=O)n2C [Example 19, N-[4-(4-Chlorophenyl)-1,3-thiazol-2-yl]-2-(1,3,6-trimethyl-2,4-dioxo-1,2,3,4-tetrahydrothieno[2,3-d]pyrimidin-5-yl)acetamide]	95%	98.2%	6.30 to 7.30		89.4%	99.2%
Cc1sc2c(c1CC(=O)Nc1nc(-c3ccc(Cl)c(Cl)c3)cs1)c(=O)n(C)c(=O)n2C [Example 20, N-[4-(3,4-Dichlorophenyl)-1,3-thiazol-2-yl]-2-(1,3,6-trimethyl-2,4-dioxo-1,2,3,4-tetrahydrothieno[2,3-d]pyrimidin-5-yl)acetamide]	99%	99.6%	> 7.30	6.30 to 7.30	83.4%	91.2%
Cc1sc2c(c1CC(=O)Nc1nc(-c3cccc(F)c3F)cs1)c(=O)n(C)c(=O)n2C [Example 21, N-[4-(2,3-Difluorophenyl)-1,3-thiazol-2-yl]-2-(1,3,6-trimethyl-2,4-dioxo-1,2,3,4-tetrahydrothieno[2,3-d]pyrimidin-5-yl)acetamide]	95.4%	100%	6.30 to 7.30		93.5%	99.7%
Cc1sc2c(c1CC(=O)Nc1nc(-c3ccc(F)cc3F)cs1)c(=O)n(C)c(=O)n2C [Example 22, N-[4-(2,4-Difluorophenyl)-1,3-thiazol-2-yl]-2-(1,3,6-trimethyl-2,4-dioxo-1,2,3,4-tetrahydrothieno[2,3-d]pyrimidin-5-yl)acetamide]	89.8%	100%	6.30 to 7.30		89.8%	99.8%
Cc1sc2c(c1CC(=O)Nc1nc(-c3ccc(F)c(C(F)(F)F)c3)cs1)c(=O)n(C)c(=O)n2C [Example 23, N-{4-[4-Fluoro-3-(trifluoromethyl)phenyl]-1,3-thiazol-2-yl}-2-(1,3,6-trimethyl-2,4-dioxo-1,2,3,4-tetrahydrothieno[2,3-d]pyrimidin-5-yl)acetamide]	97.7%	99%	> 7.30	6.30 to 7.30	100%	99.7%
Cc1sc2c(c1CC(=O)Nc1nc(-c3ccc(C(F)(F)F)c(F)c3)cs1)c(=O)n(C)c(=O)n2C [Example 24, N-{4-[3-Fluoro-4-(trifluoromethyl)phenyl]-1,3-thiazol-2-yl}-2-(1,3,6-trimethyl-2,4-dioxo-1,2,3,4-tetrahydrothieno[2,3-d]pyrimidin-5-yl)acetamide]	98.5%	99.9%	> 7.30	6.30 to 7.30	99.8%	100%
Cc1sc2c(c1CC(=O)Nc1nc(-c3ccc(F)c(OC(F)(F)F)c3)cs1)c(=O)n(C)c(=O)n2C [Example 25, N-{4-[4-Fluoro-3-(trifluoromethoxy)phenyl]-1,3-thiazol-2-yl}-2-(1,3,6-trimethyl-2,4-dioxo-1,2,3,4-tetrahydrothieno[2,3-d]pyrimidin-5-yl)acetamide]	98.5%	98.8%	> 7.30	6.30 to 7.30	99.2%	99.3%
Cc1sc2c(c1CC(=O)Nc1nc(-c3ccc(OC(F)(F)F)c(F)c3)cs1)c(=O)n(C)c(=O)n2C [Example 26, N-{4-[3-Fluoro-4-(trifluoromethoxy)phenyl]-1,3-thiazol-2-yl}-2-(1,3,6-trimethyl-2,4-dioxo-1,2,3,4-tetrahydrothieno[2,3-d]pyrimidin-5-yl)acetamide]	100%	100%	> 7.30	6.30 to 7.30	98.2%	98.1%
Cc1sc2c(c1CC(=O)Nc1nc(-c3ccc(F)c(C(F)(F)F)c3F)cs1)c(=O)n(C)c(=O)n2C [Example 27, N-{4-[2,4-Difluoro-3-(trifluoromethyl)phenyl]-1,3-thiazol-2-yl}-2-(1,3,6-trimethyl-2,4-dioxo-1,2,3,4-tetrahydrothieno[2,3-d]pyrimidin-5-yl)acetamide]	93.2%	99.1%	> 7.30	6.30 to 7.30	97.9%	98%
CCc1sc2c(c1CC(=O)Nc1nc(-c3ccc(C#N)cc3)cs1)c(=O)n(C)c(=O)n2C [Example 30, N-[4-(4-Cyanophenyl)-1,3-thiazol-2-yl]-2-(6-ethyl-1,3-dimethyl-2,4-dioxo-1,2,3,4-tetrahydrothieno[2,3-d]pyrimidin-5-yl)acetamide]	88.9%	98.4%	6.30 to 7.30		46.4%	83.6%
CCc1sc2c(c1CC(=O)Nc1nc(-c3ccc(C(F)(F)F)c(F)c3)cs1)c(=O)n(C)c(=O)n2C [Example 31, N-{4-[3-Fluoro-4-(trifluoromethyl)phenyl]-1,3-thiazol-2-yl}-2-(6-ethyl-1,3-dimethyl-2,4-dioxo-1,2,3,4-tetrahydrothieno[2,3-d]pyrimidin-5-yl)acetamide]	98%	98.5%	> 7.30	6.30 to 7.30	96.8%	97.3%
CCc1sc2c(c1CC(=O)Nc1nc(-c3ccc(F)c(C(F)(F)F)c3F)cs1)c(=O)n(C)c(=O)n2C [Example 32]	99.2%	99.3%	> 7.30	> 7.30	99.9%	98.8%
CCc1sc2c(c1CC(=O)Nc1nc(-c3cc(F)c(OC(F)F)c(F)c3)cs1)c(=O)n(C)c(=O)n2C [Example 33, N-{4-[4-(Difluoromethoxy)-3,5-difluorophenyl]-1,3-thiazol-2-yl}-2-(6-ethyl-1,3-dimethyl-2,4-dioxo-1,2,3,4-tetrahydrothieno[2,3-d]pyrimidin-5-yl)acetamide]	96.9%	96.9%	> 7.30	6.30 to 7.30	96.5%	97.3%
CCc1sc2c(c1CC(=O)Nc1nc(-c3cc(F)c(OCC(F)(F)F)c(F)c3)cs1)c(=O)n(C)c(=O)n2C [Example 34, N-{4-[3,5-Difluoro-4-(2,2,2-trifluoroethoxy)phenyl]-1,3-thiazol-2-yl}-2-(6-ethyl-1,3-dimethyl-2,4-dioxo-1,2,3,4-tetrahydrothieno[2,3-d]pyrimidin-5-yl)acetamide]	97.4%	98.4%	> 7.30	6.30 to 7.30	88.7%	93.3%

From patent US9474758B2, “Thienopyrimidinedione derivatives as TRPA1 modulators” (Glenmark Pharmaceuticals S.A., priority 2009, dated 2016)
